For data set [1] the following is noted: 0.1% aqueous solution at 25° C.; water 72 dynes/cm; cited from earlier work.
Data set [2] has as its system Staphylococcus aureus ATCC 6538S. Nature of the data set: Minimum inhibitory concentration. Format: cell-based. The following applies: ATCC6538S.
The subject of data set [3] is Pseudomonas aeruginosa Immuno type IV. Briefly: Minimum inhibitory concentration. It counts as cell-based.
The subject of data set [4] is Escherichia coli ATCC 10142. Nature of the data set: Minimum inhibitory concentration. It counts as cell-based. The following applies: ATCC10142.
Data set [5] deals with Bacillus subtilis ATCC 9372. Nature of the data set: microbe, parasite or virus in culture. Format: cell-based. Conditions: ATCC9372.
Data set [6] relates to Malassezia furfur MTCC 1374. Briefly: Minimum inhibitory concentration. It counts as cell-based. Conditions: MTCC1374.
Data set [7] has as its system Aspergillus niger ATCC 16404. Briefly: Minimum inhibitory concentration. Conditions: ATCC16404, Aspergillus niger. Format: cell-based.
For data set [8], the system named is Propionibacterium acnes MTCC 1951. Briefly: Minimum inhibitory concentration. The following applies: Cutibacterium acnes, MTCC1951. It counts as cell-based.
The subject of data set [9] is Candida albicans ATCC 10231. Briefly: Minimum inhibitory concentration. It counts as cell-based. Conditions: ATCC10231.
The test system of data set [10] is all types of microbes (Gram positive, Gram negative bacteria, yeast and mould; the chosen eight organisms). Briefly: Minimum inhibitory concentration, whole panel. Format: cell-based. Conditions: up to 1.0% concentration; bacteria, yeast and mould.
A short description of data set [11]: Reduction in surface tension of water. Format: physicochemical. As to the method: The ‘liquid alcohol ether’ as used herein like 2-ethyl hexyl glyceryl ether is also a surfactant where the hydrophobe is provided by octyl group and the hydrophilic portion is the two hydroxyl groups of glycerine moiety and the ether linkage.
A mixture of octanoic acid (114 g, […]), BHT (0.3 g) and monoethanol amine (61 g, […]) is stirred under nitrogen blanket in a pressure vessel at 140° C. for 4 hr and then the temperature is raised to 165° C. for additional one hour. At this stage, acid value is normally found to be around 5 or less. The reaction was then cooled under mild vacuum to 60° C. and the molten mass is converted into off-white flakes (148 g, 95%) by pouring it on a glass plate. (Melting point 62-64° C., acid value 5, IR (KBr): 1640 cm^−1 (carbonyl of amide), 1556 cm^−1, 2919 cm^−1, 3289 cm^−1 (NH of amide) Reduction is surface tension of water: 0.05% solution, 38.5 dyne/cm, 0.1% solution 30.5 dyne/cm.

Each structure is given as a SMILES string. Like-named read-outs stand apart in the source and are kept apart here. Bounds are passed on as bounds.

For the compound `CCCCC(CC)COCC(O)CO` (centres unmarked) [2-ethyl hexyl glyceryl ether, 3-(2-ethylhexyl) oxy 1,2-propanediol], the “Surface tension of water” value in [1] is 32 dynes/cm.

For `CCCCCCCC(=O)NCCO` [Octanoyl MEA amide, N-(2-hydroxylethyl)caprylic acid amide], the MIC in data set [2] (Staphylococcus aureus ATCC 6538S, read-out: MINIMUM INHIBITORY CONCENTRATION) is more than 10000 µg/mL; in [2] (in Preservative Blend No 2 (10:10:80), Staphylococcus aureus, read-out: Concentration of individual component at MIC of Preservative Blend No 2) it was 300 µg/mL; in [3] (Pseudomonas aeruginosa Immuno type IV, read-out: MINIMUM INHIBITORY CONCENTRATION) it was more than 10000 µg/mL; in [3] (in Preservative Blend No 2 (10:10:80), Pseudomonas aeruginosa, read-out: Concentration of individual component at MIC of Preservative Blend No 2) it was 300 µg/mL; in [4] (Escherichia coli ATCC 10142, read-out: MINIMUM INHIBITORY CONCENTRATION), more than 10000 µg/mL; in data set [4] (in Preservative Blend No 2 (10:10:80), Escherichia coli, read-out: Concentration of individual component at MIC of Preservative Blend No 2) it was 300 µg/mL. Also, the MIC in data set [5] (Bacillus subtilis ATCC 9372, read-out: MINIMUM INHIBITORY CONCENTRATION) was more than 10000 µg/mL; in [5] (in Preservative Blend No 2 (10:10:80), Bacillus subtilis, read-out: Concentration of individual component at MIC of Preservative Blend No 2), 200 µg/mL; in data set [6] (Malassezia furfur MTCC 1374, read-out: MINIMUM INHIBITORY CONCENTRATION) it was more than 10000 µg/mL; in [6] (in Preservative Blend No 2 (10:10:80), Malassezia furfur, read-out: Concentration of individual component at MIC of Preservative Blend No 2), 400 µg/mL; in data set [7] (in Preservative Blend No 2 (10:10:80), read-out: Concentration of individual component at MIC of Preservative Blend No 2), 200 µg/mL; in data set [7] (read-out: MINIMUM INHIBITORY CONCENTRATION), more than 10000 µg/mL. Moreover, the MIC in [8] (Propionibacterium acnes MTCC 1951, read-out: MINIMUM INHIBITORY CONCENTRATION) is more than 10000 µg/mL; in data set [8] (in Preservative Blend No 2 (10:10:80), Propionibacterium acnes, read-out: Concentration of individual component at MIC of Preservative Blend No 2) it was 200 µg/mL; in data set [9] (Candida albicans ATCC 10231, read-out: MINIMUM INHIBITORY CONCENTRATION), more than 10000 µg/mL; in [9] (in Preservative Blend No 2 (10:10:80), Candida albicans, read-out: Concentration of individual component at MIC of Preservative Blend No 2), 200 µg/mL. In addition, in data set [10], the “Antimicrobial activity of the ingredient alone” value is given as “did not exhibit any antibacterial activity”. For the same compound, the entries for the “Surface tension of water” value in data set [11] (0.05% level) and in [11] (0.1% concentration) were 38 dynes/cm and 30 dynes/cm, respectively.
